For the assay, the target named is T1, B2 bradykinin receptor (Homo sapiens, UniProt P30411).
T1 sequence (P30411 whole entry): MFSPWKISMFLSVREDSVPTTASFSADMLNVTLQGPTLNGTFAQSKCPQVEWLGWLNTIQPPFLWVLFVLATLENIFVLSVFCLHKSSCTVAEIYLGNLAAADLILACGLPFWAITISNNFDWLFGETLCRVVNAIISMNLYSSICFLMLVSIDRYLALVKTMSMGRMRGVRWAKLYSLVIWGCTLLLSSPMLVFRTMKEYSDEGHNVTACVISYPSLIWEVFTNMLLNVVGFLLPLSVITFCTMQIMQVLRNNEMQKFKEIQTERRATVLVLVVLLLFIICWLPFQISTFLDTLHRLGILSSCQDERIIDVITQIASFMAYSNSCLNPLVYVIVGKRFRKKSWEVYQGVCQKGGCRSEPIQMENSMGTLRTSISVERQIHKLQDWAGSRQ
Nature of the assay: Antagonist effect against bradykinin B2 receptor was determined in rabbit jugular vein. Type of assay: functional, tissue-based, Oryctolagus cuniculus. The note with it: target entry is the homologue from another species; read-out: pA2 (converted).

Square brackets hold non-standard residues; d marks the D form. Peptide text beside a SMILES is read from it. * marks the point of attachment. Benzoyl(4-guanidino) = N=C(N)Nc1ccc(C(=O)*)cc1; Oic = O=C(O)[C@@H]1C[C@@H]2CCCC[C@@H]2N1; Hyp = O=C(O)[C@@H]1C[C@@H](O)CN1; dTic = O=C(O)[C@H]1Cc2ccccc2CN1; 2Thi = N[C@@H](Cc1cccs1)C(=O)O

For the compound `N=C(N)NCCC[C@H](NC(=O)[C@@H]1C[C@@H]2CCCC[C@@H]2N1C(=O)[C@H]1Cc2ccccc2CN1C(=O)[C@H](CO)NC(=O)[C@H](Cc1cccs1)NC(=O)CNC(=O)[C@@H]1C[C@@H](O)CN1C(=O)[C@@H]1CCCN1C(=O)[C@H](CCCNC(=N)N)NC(=O)c1ccc(NC(=N)N)cc1)C(=O)O` ({Benzoyl(4-guanidino)}-RP[Hyp]G[2Thi]S[dTic][Oic]R-OH), the Kb was 0.263 nM.

For the origin of these results see ChEMBL document CHEMBL1127267, “p-Guanidinobenzoyl-[Hyp3, Thi5, D-Tic7, Oic8]bradykinin is almost completely devoid of the agonist effect of HOE140 on the endothelium-free femoral artery of sheep” (Bioorg Med Chem Lett, 1994).
